Several values for one entry are separate records, joined by “and”; a condition that tells them apart may be missing. Equal entries are not always repeated. Entries after “also recorded” stand apart in the source; their conditions may differ.
Experiments:
[1] = test system: HIV-1 RT mutant resistance test vector A62V+T69SSA; experiment: Phenotypic susceptibility assay, site directed RTV A62V+T69SSA; format: cell-based; details: for Average fold reduction in susceptibility: RTV with 62 + 69 (A62V+T69SSA), 4 replicates; for effect on susceptibility (words): RTV with A62V+T69SSA, compared with T69SSA alone
Procedure: (§1) Resistance tests were carried out with resistance test vectors using two host cell types. Resistance test vector viral particles were produced by a first host cell (the resistance test vector host cell) that was prepared by transfecting a packaging host cell with the resistance test vector and the packaging expression vector. The resistance test vector viral particles were then used to infect a second host cell (the target host cell) in which the expression of the indicator gene is measured.
(§2) The resistance test vectors containing a functional luciferase gene cassette were constructed and host cells were transfected with the resistance test vector DNA. The resistant test vectors contained patient-derived reverse transcriptase and protease sequences that were either susceptible or resistant to the antiretroviral agents, such as nucleoside reverse transcriptase inhibitors, non-nucleoside reverse transcriptase inhibitors and protease inhibitors. The resistance test vector viral particles produced by transfecting the resistance test vector DNA into host cells, either in the presence or absence of protease inhibitors, were used to infect target host cells grown either in the absence of NRTI or NNRTI or In the presence of increasing concentrations of the drug. The amount of luciferase activIty produced in infected target host cells in the presence of drug was compared to the amount of luciferase produced in infected target host cells in the absence of drug. Drug resistance was measured as the amount of drug required to inhibit by 50% the luciferase activity detected in the absence of drug (Inhibitory concentration 50%, IC50). The IC50 values were determined by plotting percent drug inhibition vs. log 10 drug concentration.
(§3) Host cells were seeded in 10-cm-diameter dishes and were transfected several days after plating with resistance test vector plasmid DNA and the envelope expression vector. Transfections were performed using a calcium-phosphate precipitation procedure. The cell culture media containing the DNA precipitate was replaced with fresh medium, from one to 24 hours, after transfection. Cell culture media containing resistance test vector viral particles was harvested one to four days after transfection and was passed through a […] filter before being stored at −80° C. HIV capsid protein (p24) levels in the harvested cell culture media were determined by an EIA method as described by the manufacturer (SIAC; Frederick, Md.). Before infection, target cells (293 and 293/T) were plated in cell culture media. Control infections were performed using cell culture media from mock transfections (no DNA) or transfections containing the resistance test vector plasmid DNA without the envelope expression plasmid. One to three or more days after infectIon the media was removed and cell lysis buffer (Promega) was added to each well. Cell lysates were assayed for luciferase activity (FIG. 3). The inhibitory effect of the drug was determined using the following equation:
(§4) % luciferase inhibition=1−(RLUluc[drug]÷RLUluc)×100
(§5) where RLUluc [drug] is the relative light unit of luciferase activity in infected cells in the presence of drug and RLUluc is the Relative Light Unit of luciferase activity in infected cells in the absence of drug. IC50 values were obtained from the sigmoidal curves that were generated from the data by plotting the percent inhibition of luciferase activity vs. the log 10 drug concentration. The drug inhibition curves are shown in (FIG. 3).
(§6) Genotypic changes that are observed to correlate with changes in phenotypic patterns of drug susceptibility are evaluated by construction of resistance test vectors containing the specific mutation on a defined, wild-type (drug susceptible) genetic background. Mutations may be incorporated alone and/or in combination with other known drug resistance mutations that are thought to modulate the susceptibility of HIV to a certain drug or class of drugs. […]

[2] = test system: HIV-1 RT mutant resistance test vector 41 + 215 (M41L and T215Y); experiment: Phenotypic susceptibility assay, site directed RTV 41 + 215; format: cell-based; details: RTV with 41 + 215; 4 replicates
Procedure: as §1, §2, §3, §4, §5, §6

[3] = test system: HIV-1 RT mutant resistance test vector 41 + 210 + 215; experiment: Phenotypic susceptibility assay, site directed RTV 41 + 210 + 215; format: cell-based; details: RTV with 41 + 210 + 215; 3 replicates
Procedure: as §1, §2, §3, §4, §5, §6

[4] = test system: HIV-1 RT mutant resistance test vector M41L-T69SSA-T215Y-RTV; experiment: Phenotypic susceptibility assay, site directed RTV M41L+T69SSA+T215Y; format: cell-based; details: for Average fold reduction in susceptibility: RTV with 41 + 69 + 215 (M41L, T69SSA, T215Y), 2 replicates; for effect on susceptibility (words): RTV with M41L+T69SSA+T215Y
Procedure: as §1, §2, §3, §4, §5, §6

[5] = test system: HIV-1 RT mutant resistance test vector 41 + 62 + 69 + 75M + 210 + 215; experiment: Phenotypic susceptibility assay, site directed RTV 41 + 62 + 69 + 75M + 210 + 215; format: cell-based; details: RTV with 41 + 62 + 69 + 75M + 210 + 215; 1 replicate
Procedure: as §1, §2, §3, §4, §5, §6

[6] = test system: HIV-1 RT mutant resistance test vector 41 + 62 + 69 + 75S + 210 + 215; experiment: Phenotypic susceptibility assay, site directed RTV 41 + 62 + 69 + 75S + 210 + 215; format: cell-based; details: RTV with 41 + 62 + 69 + 75S + 210 + 215; 1 replicate
Procedure: as §1, §2, §3, §4, §5, §6

[7] = test system: HIV-1 RT mutant resistance test vector 41 + 184 + 215; experiment: Phenotypic susceptibility assay, site directed RTV 41 + 184 + 215; format: cell-based; details: RTV with 41 + 184 + 215; 3 replicates
Procedure: as §1, §2, §3, §4, §5, §6

[8] = test system: HIV-1 RT mutant resistance test vector 41 + 69 + 184 + 215; experiment: Phenotypic susceptibility assay, site directed RTV 41 + 69 + 184 + 215; format: cell-based; details: RTV with 41 + 69 + 184 + 215; 2 replicates
Procedure: as §1, §2, §3, §4, §5, §6

[9] = test system: HIV-1 RT mutant resistance test vector M41L+A62V+T69SSA+M184V+T215Y; experiment: Phenotypic susceptibility assay, site directed RTV M41L+A62V+T69SSA+M184V+T215Y; format: cell-based; details: for Average fold reduction in susceptibility: RTV with 41 + 62 + 69 + 184 + 215, 2 replicates; for effect on susceptibility (words): RTV with M41L+A62V+T69SSA+M184V+T215Y, addition of M184V to the 4 mutations
Procedure: as §1, §2, §3, §4, §5, §6

[10] = test system: HIV with RT Met184→Val mutation; details: Met184→Val (M184V); cited from earlier work
[11] = test system: HIV with RT Val75→Thr mutation; details: cited from earlier work

Row | Compound | Average fold reduction in susceptibility [1] | Average fold reduction in susceptibility [2] [fold] | Average fold reduction in susceptibility [3] [fold] | Average fold reduction in susceptibility [4] | Average fold reduction in susceptibility [5] [fold] | Average fold reduction in susceptibility [6] [fold] | Average fold reduction in susceptibility [7] [fold] | Average fold reduction in susceptibility [8] [fold] | Average fold reduction in susceptibility [9] [fold] | effect on susceptibility (words) [9] | fold increase in IC50 / reduction in susceptibility [10] | effect on susceptibility (words) [1] | effect on susceptibility (words) [4] | fold increase in IC50 [11] | susceptibility [11]
1 | Nc1nc(NC2CC2)c2ncn([C@H]3C=C[C@@H](CO)C3)c2n1 [ABC, abacavir] | 2.71 fold | 1.68 | 2.25 | 9.69 fold | 15.53 | 14.21 | 3.02 | 11.56 | 11.73 | no effect on susceptibility to ddC or abacavir | 2-5 fold |  |  |  | 
2 | Cc1cn([C@H]2C[C@H](N=[N+]=[N-])[C@@H](CO)O2)c(=O)[nH]c1=O [AZT, zidovudine] | 6 fold and 7 fold and approximately six-fold and 6.87 fold | 17.82 | 56.14 | 160 fold and 140 fold and 141.71 fold | >1000 | >1000 | 2.77 | 5.87 | 43.86 | increase in the susceptibility to AZT; also recorded: suppressed the reduced AZT susceptibility; also recorded: more susceptible |  | further reduce AZT susceptibility | significant decrease in both d4T and AZT susceptibility |  | 
3 | Cc1cn([C@H]2C=C[C@@H](CO)O2)c(=O)[nH]c1=O [d4T, stavudine] | 1.66 fold | 1.61 | 1.94 | 5 fold and 5.20 fold | 13.18 | 14.13 | 1.18 | 2.32 | 3.98 | no effect on the susceptibility to d4T; also recorded: did reduce d4T susceptibility more than the T69SSA mutation alone; also recorded: more susceptible |  | no effect on the susceptibility to d4T; also recorded: did not reduce d4T susceptibility more than the T69SSA mutation alone | significant decrease in both d4T and AZT susceptibility | seven-fold | 
4 | Nc1ccn([C@H]2CC[C@@H](CO)O2)c(=O)n1 [ddC, zalcitabine] | 1.74 fold | 1.21 | 1.36 | 1.41 fold | 2.09 | 2.58 | 1.73 | 3.48 | 2.90 | no effect on susceptibility to ddC or abacavir | four-fold to eight-fold |  |  |  | reduced susceptibility to both ddI and ddC
5 | O=c1[nH]cnc2c1ncn2[C@H]1CC[C@@H](CO)O1 [ddI, didanosine] | 1.54 fold | 1.09 | 1.08 | 2.02 fold | 3.10 | 5.12 | 1.35 | 2.28 | 2.55 | more susceptible | four-fold to eight-fold |  |  |  | reduced susceptibility to both ddI and ddC

From patent publication US6489098B1, “Means and methods for monitoring nucleoside reverse transcriptase inhibitor antiretroviral therapy and guiding therapeutic decisions in the treatment of HIV/AIDS” (ViroLogic, Inc., priority 1998, dated 2002)
